# Experiments:
# [1] = tested on: Monochoria vaginalis, Presl.; assay: Preemergence weed control under flooded paddy conditions, MOOVA (Monochoria); assay type: in vivo; conditions: flooded paddy; note: meaning of each grade not given here
# [2] = tested on: Sagittaria pygmaea, L.; assay: Preemergence weed control under flooded paddy conditions, SAGPY (Arrowhead (Pygmaea)); assay type: in vivo; conditions: flooded paddy; note: meaning of each grade not given here
# [3] = tested on: Cyperus serotinus, Rottb.; assay: Preemergence weed control under flooded paddy conditions, CYPSE (Flatsedge); assay type: in vivo; note: meaning of each grade not given here
# [4] = tested on: Echinochloa oryzoides (Ard.) Fritsch.; assay: Preemergence weed control under flooded paddy conditions, ECHORC (Watergrass (Calif.)); assay type: in vivo; conditions: flooded paddy; note: meaning of each grade not given here
# [5] = tested on: Cyperus iria; assay: Preemergence weed control under flooded paddy conditions, CYPIR (Rice Flatsedge); assay type: in vivo; conditions: flooded paddy; note: meaning of each grade not given here
# [6] = tested on: Oryza sativa, (L.) Tebonnet; assay: Rice tolerance to post-transplant applications under flooded paddy conditions (Example 187), ORYSAT (Rice, Tebonnet); for herbicidal effect rating ORYSAT: meaning of each grade not given here
# [7] = Rate 0.0320 kg/ha, preemergence weeds, rated three to four weeks after treatment
# [8] = Rate 0.0620 kg/ha, preemergence weeds, rated three to four weeks after treatment
# [9] = Rate 0.1250 kg/ha, preemergence weeds, rated three to four weeks after treatment
# [10] = Rate 0.2500 kg/ha, preemergence weeds, rated three to four weeks after treatment
# [11] = Rate 0.0320 kg/ha, rated three to four weeks after treatment
# [12] = Rate 0.0620 kg/ha, rated three to four weeks after treatment
# [13] = Rate 0.1250 kg/ha, rated three to four weeks after treatment
# [14] = Rate 0.2500 kg/ha, rated three to four weeks after treatment
# [15] = Rate 0.0320 kg/ha, preemergence, rated three to four weeks after treatment
# [16] = Rate 0.0620 kg/ha, preemergence, rated three to four weeks after treatment
# [17] = Rate 0.1250 kg/ha, preemergence, rated three to four weeks after treatment
# [18] = Rate 0.2500 kg/ha, preemergence, rated three to four weeks after treatment
# [19] = 0.0313 kg/ha, preemergence, rated three to four weeks after treatment
# [20] = 0.0625 kg/ha, preemergence, rated three to four weeks after treatment
# [21] = 0.1250 kg/ha, preemergence, rated three to four weeks after treatment
# [22] = 0.2500 kg/ha, preemergence, rated three to four weeks after treatment
# [23] = Rate 0.0320 kg/ha, preemergence, rated 3-4 weeks after treatment
# [24] = Rate 0.0620 kg/ha, preemergence, rated 3-4 weeks after treatment
# [25] = Rate 0.1250 kg/ha, preemergence, rated 3-4 weeks after treatment
# [26] = Rate 0.2500 kg/ha, preemergence, rated 3-4 weeks after treatment
# [27] = Rate 0.5000 kg/ha, preemergence, rated 3-4 weeks after treatment
compound,measurement,setting,value
"COc1cccc(-c2nsc3ccc(-n4c(=O)cc(C(F)(F)F)n(C)c4=O)cc23)c1 [Example 301, 2,4(1H,3H)-Pyrimidinedione, 3-[3-(m-methoxyphenyl)-1,2-benzisothiazol-5-yl]-1-methyl-6-(trifluoromethyl)-]","herbicidal effect rating, MOOVA",[1]; [7],9.0
same,"herbicidal effect rating, MOOVA",[1]; [8],9.0
same,"herbicidal effect rating, MOOVA",[1]; [9],9.0
same,"herbicidal effect rating, MOOVA",[1]; [10],9.0
same,"herbicidal effect rating, SAGPY",[2]; [7],2.0
same,"herbicidal effect rating, SAGPY",[2]; [8],4.5
same,"herbicidal effect rating, SAGPY",[2]; [9],7.0
same,"herbicidal effect rating, SAGPY",[2]; [10],8.5
same,"herbicidal effect rating, CYPSE",[3]; [7],9.0
same,"herbicidal effect rating, CYPSE",[3]; [8],9.0
same,"herbicidal effect rating, CYPSE",[3]; [9],9.0
same,"herbicidal effect rating, CYPSE",[3]; [10],9.0
same,"herbicidal effect rating, ECHORC",[4]; [7],9.0
same,"herbicidal effect rating, ECHORC",[4]; [8],9.0
same,"herbicidal effect rating, ECHORC",[4]; [9],9.0
same,"herbicidal effect rating, ECHORC",[4]; [10],9.0
same,"herbicidal effect rating, CYPIR",[5]; [7],9.0
same,"herbicidal effect rating, CYPIR",[5]; [8],9.0
same,"herbicidal effect rating, CYPIR",[5]; [9],9.0
same,"herbicidal effect rating, CYPIR",[5]; [10],9.0
same,herbicidal effect rating ORYSAT,[6]; [11],1.0
same,herbicidal effect rating ORYSAT,[6]; [12],1.0
same,herbicidal effect rating ORYSAT,[6]; [13],2.5
same,herbicidal effect rating ORYSAT,[6]; [14],3.5
"Cn1c(C(F)(F)F)cc(=O)n(-c2cc3c(CBr)nsc3cc2F)c1=O [Example 376, 2,4(1H,3H)-Pyrimidinedione, 3-[3-(bromomethyl)-6-fluoro-1,2-benzisothiazol-5-yl]-1-methyl-6-(trifluoromethyl)-]","herbicidal effect rating, MOOVA",[1]; [15],9.0
same,"herbicidal effect rating, MOOVA",[1]; [16],9.0
same,"herbicidal effect rating, MOOVA",[1]; [17],9.0
same,"herbicidal effect rating, MOOVA",[1]; [18],9.0
same,"herbicidal effect rating, SAGPY",[2]; [15],8.0
same,"herbicidal effect rating, SAGPY",[2]; [16],8.5
same,"herbicidal effect rating, SAGPY",[2]; [17],9.0
same,"herbicidal effect rating, SAGPY",[2]; [18],9.0
same,"herbicidal effect rating, CYPSE",[3]; [15],3.0
same,"herbicidal effect rating, CYPSE",[3]; [16],4.0
same,"herbicidal effect rating, CYPSE",[3]; [17],5.5
same,"herbicidal effect rating, CYPSE",[3]; [18],8.0
same,"herbicidal effect rating, ECHORC",[4]; [15],3.0
same,"herbicidal effect rating, ECHORC",[4]; [16],5.5
same,"herbicidal effect rating, ECHORC",[4]; [17],6.5
same,"herbicidal effect rating, ECHORC",[4]; [18],9.0
same,"herbicidal effect rating, CYPIR",[5]; [15],3.0
same,"herbicidal effect rating, CYPIR",[5]; [16],8.0
same,"herbicidal effect rating, CYPIR",[5]; [17],9.0
same,"herbicidal effect rating, CYPIR",[5]; [18],9.0
same,herbicidal effect rating ORYSAT,[6]; [11],4.0
same,herbicidal effect rating ORYSAT,[6]; [12],6.0
same,herbicidal effect rating ORYSAT,[6]; [13],6.0
same,herbicidal effect rating ORYSAT,[6]; [14],8.5
"Cn1c(C(F)(F)F)cc(=O)n(-c2ccc3snc(C(C#N)=Cc4ccoc4)c3c2)c1=O [Example 593, 1,2-Benzisothiazole-3-acetonitrile, 5-[3,6-dihydro-3-methyl-2,6-dioxo-4-(trifluoromethyl)-1(2H)-pyrimidinyl]-alpha-(3-furylmethylene)-]","herbicidal effect rating, MOOVA",[1]; [16],7.0
same,"herbicidal effect rating, MOOVA",[1]; [17],7.0
same,"herbicidal effect rating, MOOVA",[1]; [18],7.0
same,"herbicidal effect rating, SAGPY",[2]; [15],0.0
same,"herbicidal effect rating, SAGPY",[2]; [16],0.0
same,"herbicidal effect rating, SAGPY",[2]; [17],0.0
same,"herbicidal effect rating, SAGPY",[2]; [18],0.0
same,"herbicidal effect rating, CYPSE",[3]; [17],0.0
same,"herbicidal effect rating, CYPSE",[3]; [18],0.0
same,"herbicidal effect rating, ECHORC",[4]; [15],0.0
same,"herbicidal effect rating, ECHORC",[4]; [16],0.0
same,"herbicidal effect rating, ECHORC",[4]; [17],0.0
same,"herbicidal effect rating, ECHORC",[4]; [18],0.0
same,"herbicidal effect rating, CYPIR",[5]; [15],3.0
same,"herbicidal effect rating, CYPIR",[5]; [16],3.0
same,"herbicidal effect rating, CYPIR",[5]; [17],4.0
same,"herbicidal effect rating, CYPIR",[5]; [18],5.0
same,herbicidal effect rating ORYSAT,[6]; [11],0.0
same,herbicidal effect rating ORYSAT,[6]; [12],0.0
same,herbicidal effect rating ORYSAT,[6]; [13],0.0
same,herbicidal effect rating ORYSAT,[6]; [14],0.0
"Cn1c(C(F)(F)F)cc(=O)n(-c2ccc3snc(COCc4ccc([N+](=O)[O-])cc4)c3c2)c1=O [Example 589, 2,4(1H,3H)-Pyrimidinedione, 1-methyl-3-{3-{[(p-nitrobenzyl)oxy]methyl}-1,2-benzisothiazol-5-yl}-6-(trifluoromethyl)-]","herbicidal effect rating, MOOVA",[1]; [15],7.0
same,"herbicidal effect rating, MOOVA",[1]; [16],8.0
same,"herbicidal effect rating, MOOVA",[1]; [17],8.0
same,"herbicidal effect rating, MOOVA",[1]; [18],9.0
same,"herbicidal effect rating, SAGPY",[2]; [15],0.0
same,"herbicidal effect rating, SAGPY",[2]; [16],2.0
same,"herbicidal effect rating, SAGPY",[2]; [17],2.0
same,"herbicidal effect rating, SAGPY",[2]; [18],3.0
same,"herbicidal effect rating, CYPSE",[3]; [15],0.0
same,"herbicidal effect rating, CYPSE",[3]; [16],0.0
same,"herbicidal effect rating, CYPSE",[3]; [17],0.0
same,"herbicidal effect rating, ECHORC",[4]; [15],4.0
same,"herbicidal effect rating, ECHORC",[4]; [16],4.0
same,"herbicidal effect rating, ECHORC",[4]; [17],4.0
same,"herbicidal effect rating, ECHORC",[4]; [18],4.0
same,"herbicidal effect rating, CYPIR",[5]; [15],0.0
same,"herbicidal effect rating, CYPIR",[5]; [16],2.0
same,"herbicidal effect rating, CYPIR",[5]; [17],3.0
same,"herbicidal effect rating, CYPIR",[5]; [18],4.0
same,herbicidal effect rating ORYSAT,[6]; [11],0.0
same,herbicidal effect rating ORYSAT,[6]; [12],0.0
same,herbicidal effect rating ORYSAT,[6]; [13],0.0
same,herbicidal effect rating ORYSAT,[6]; [14],0.0
"Cc1ccc(OC(C)C#N)c(-c2nsc3ccc(-n4c(=O)cc(C(F)(F)F)n(C)c4=O)cc23)c1 (centres unmarked) [Example 58, 3-{3-[6-(1-Cyanoethoxy)-m-tolyl]-1,2-benzisothiazol-5-yl}-1-methyl-6-(trifluoromethyl)-2,4(1H,3H)-pyrimidinedione]","herbicidal effect rating, MOOVA",[1]; [19],9.0
same,"herbicidal effect rating, MOOVA",[1]; [20],9.0
same,"herbicidal effect rating, MOOVA",[1]; [21],9.0
same,"herbicidal effect rating, MOOVA",[1]; [22],9.0
same,"herbicidal effect rating, SAGPY",[2]; [19],0.0
same,"herbicidal effect rating, SAGPY",[2]; [20],0.0
same,"herbicidal effect rating, SAGPY",[2]; [21],0.0
same,"herbicidal effect rating, SAGPY",[2]; [22],0.0
same,"herbicidal effect rating, CYPSE",[3]; [19],0.0
same,"herbicidal effect rating, CYPSE",[3]; [20],0.0
same,"herbicidal effect rating, CYPSE",[3]; [21],0.0
same,"herbicidal effect rating, CYPSE",[3]; [22],0.0
same,"herbicidal effect rating, ECHORC",[4]; [19],9.0
same,"herbicidal effect rating, ECHORC",[4]; [20],9.0
same,"herbicidal effect rating, ECHORC",[4]; [21],9.0
same,"herbicidal effect rating, ECHORC",[4]; [22],9.0
same,"herbicidal effect rating, CYPIR",[5]; [19],9.0
same,"herbicidal effect rating, CYPIR",[5]; [20],9.0
same,"herbicidal effect rating, CYPIR",[5]; [21],9.0
same,"herbicidal effect rating, CYPIR",[5]; [22],9.0
same,"herbicidal effect rating, ORYSAT (rice tolerance)","[6]; 0.0313 kg/ha, rated three to four weeks after treatment",2.0
same,"herbicidal effect rating, ORYSAT (rice tolerance)","[6]; 0.0625 kg/ha, rated three to four weeks after treatment",2.0
same,"herbicidal effect rating, ORYSAT (rice tolerance)","[6]; 0.1250 kg/ha, rated three to four weeks after treatment",3.0
same,"herbicidal effect rating, ORYSAT (rice tolerance)","[6]; 0.2500 kg/ha, rated three to four weeks after treatment",5.0
"Cc1ccc(OCC(=O)NS(=O)(=O)C(C)C)c(-c2nsc3ccc(-n4c(=O)cc(C(F)(F)F)n(C)c4=O)cc23)c1 [Example 560, Acetamide, 2-{{2-{5-[3,6-dihydro-3-methyl-2,6-dioxo-4-(trifluoromethyl)-1(2H)-pyrimidinyl]-1,2-benzisothiazol-3-yl}-p-tolyl}oxy}-N-(isopropylsulfonyl)-]","herbicidal effect rating, MOOVA",[1]; [23],8.0
same,"herbicidal effect rating, MOOVA",[1]; [24],9.0
same,"herbicidal effect rating, MOOVA",[1]; [25],9.0
same,"herbicidal effect rating, MOOVA",[1]; [26],9.0
same,"herbicidal effect rating, MOOVA",[1]; [27],9.0
same,"herbicidal effect rating, SAGPY",[2]; [23],0.0
same,"herbicidal effect rating, SAGPY",[2]; [24],0.0
same,"herbicidal effect rating, SAGPY",[2]; [25],0.0
same,"herbicidal effect rating, SAGPY",[2]; [26],0.0
same,"herbicidal effect rating, SAGPY",[2]; [27],0.0
same,"herbicidal effect rating, CYPSE",[3]; [23],0.0
same,"herbicidal effect rating, CYPSE",[3]; [24],2.0
same,"herbicidal effect rating, CYPSE",[3]; [25],7.0
same,"herbicidal effect rating, CYPSE",[3]; [26],9.0
same,"herbicidal effect rating, CYPSE",[3]; [27],9.0
same,"herbicidal effect rating, ECHORC",[4]; [23],2.0
same,"herbicidal effect rating, ECHORC",[4]; [24],3.0
same,"herbicidal effect rating, ECHORC",[4]; [25],4.6
same,"herbicidal effect rating, ECHORC",[4]; [26],9.0
same,"herbicidal effect rating, ECHORC",[4]; [27],7.0
same,"herbicidal effect rating, CYPIR",[5]; [23],0.0
same,"herbicidal effect rating, CYPIR",[5]; [24],2.0
same,"herbicidal effect rating, CYPIR",[5]; [25],7.0
same,"herbicidal effect rating, CYPIR",[5]; [26],9.0
same,"herbicidal effect rating, CYPIR",[5]; [27],3.0
same,herbicidal effect rating ORYSAT,"[6]; Rate 0.0320 kg/ha, rated 3-4 weeks after treatment",3.0
same,herbicidal effect rating ORYSAT,"[6]; Rate 0.0620 kg/ha, rated 3-4 weeks after treatment",3.0
same,herbicidal effect rating ORYSAT,"[6]; Rate 0.1250 kg/ha, rated 3-4 weeks after treatment",2.0
same,herbicidal effect rating ORYSAT,"[6]; Rate 0.2500 kg/ha, rated 3-4 weeks after treatment",4.0
same,herbicidal effect rating ORYSAT,"[6]; Rate 0.5000 kg/ha, rated 3-4 weeks after treatment",2.0

# From EP0908457B1, “3-(1,2-benzisothiazol- and isoxazol-5-Y1)-2,4(1H,3H)-pyrimidinedione or thione and 3-(1,2-benzisothiazol- and isoxazol-5-y1)-4(3H)-pyrimidinone or thione herbicidal agents” (BASF AKTIENGESELLSCHAFT, priority 1997, dated 1999)
